Laboratory results reported in patent publication US20090030015A1, “NOVEL MULTI-CYCLIC COMPOUNDS” (REVOTAR BIOPHARMACEUTICALS AG, priority 2005, published 2009).

Experiments:
[1] = target: T1, human P-Selectin-IgG-chimera (Homo sapiens, UniProt P16109); experiment: Sialyl Lewis X Tyrosine Sulfate Assay (sLex TSA), P-selectin; type: binding; conditions: sLexTSA; for P-Selectin [% inhib.]: in vitro inhibition at 100 μM
T1 sequence (P16109 42-771 limits assumed): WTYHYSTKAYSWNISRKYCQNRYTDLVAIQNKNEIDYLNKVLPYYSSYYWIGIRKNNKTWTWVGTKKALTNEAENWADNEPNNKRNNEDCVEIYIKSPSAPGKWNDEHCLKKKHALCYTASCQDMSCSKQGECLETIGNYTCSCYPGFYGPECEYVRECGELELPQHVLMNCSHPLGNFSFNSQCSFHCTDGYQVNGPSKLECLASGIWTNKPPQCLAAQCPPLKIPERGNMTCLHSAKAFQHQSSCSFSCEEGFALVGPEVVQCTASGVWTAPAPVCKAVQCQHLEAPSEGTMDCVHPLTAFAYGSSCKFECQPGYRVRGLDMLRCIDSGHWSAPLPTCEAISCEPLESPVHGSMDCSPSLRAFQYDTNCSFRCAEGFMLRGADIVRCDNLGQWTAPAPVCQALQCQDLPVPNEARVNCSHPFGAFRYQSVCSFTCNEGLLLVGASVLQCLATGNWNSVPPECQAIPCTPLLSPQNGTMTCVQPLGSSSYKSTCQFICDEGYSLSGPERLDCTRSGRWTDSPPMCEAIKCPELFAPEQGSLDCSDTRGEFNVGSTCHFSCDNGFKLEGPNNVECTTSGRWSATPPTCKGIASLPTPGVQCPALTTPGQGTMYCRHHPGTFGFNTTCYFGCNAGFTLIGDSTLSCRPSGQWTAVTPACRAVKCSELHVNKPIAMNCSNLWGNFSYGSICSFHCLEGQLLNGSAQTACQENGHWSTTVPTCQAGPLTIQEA
Description: (§1) Sialyl Lewis^X Tyrosine Sulfate Assay (sLe^x TSA):
(§2) Compounds of the present invention are assayed on a molecular level for their ability to inhibit the binding of P-, L-, or E-selectin chimeric molecules to sLe^x and tyrosinesulfate residues linked to a polymeric matrix as a PSGL-1 substitute. Selected IC50-values are determined.
(§3) Microtiter plates are coated overnight in carbonate buffer pH9.6 with goat anti human Fc mAB (10 μg/ml). After washing in assay buffer (25 mM 4-(2-hydroxyethyl)-1-piperazineethanesulfonic acid (HEPES), 150 mM NaCl, 1 mM CaCl2 pH7.4) and blocking (3% bovine serum albumin (BSA) in assay buffer) plates are incubated for 2 h at 37° C. with human P-Selectin-IgG-chimera (0.61 nM respectively 150 ng/mL) or human L-Selectin-IgG-chimera (0.61 nM respectively 89 ng/mL) or human E-Selectin-IgG-chimera (0.61 nM respectively 131 ng/mL). 5 μl of sLe^x-tyrosine sulfate polyacrylamide (1 mg/ml) carrying 15% sLe^x, 10% Tyrosine-sulfate and 5% biotin is complexed with 20 μl Streptavidin-Peroxidase solution (1 mg/ml) and 25 μl assay buffer without CaCl2. For use in the assay, the ligand complex is diluted 1:10000 in assay buffer and further diluted 1:1 with varying amounts of compounds in assay buffer incl. 2% DMSO. This mixture is added to the wells precoated with E- or P-selectin. After incubation for 2 h at 37° C., wells are washed for six times with in assay buffer incl. 0.005% Polyoxyethylenesorbitan monolaurate (TWEEN 20), developed for 10-15 min with 20 μl 3,3′,5,5′-tetramethylbenzidine (TMB)/H2O2 substrate solution and stopped with 20 μl 1M H2SO4. Bound sLe^x-Tyrosine sulfate ligand complex is determined by measuring optical density at 450 nm vs. 620 nm in a Fusion alpha-FP reader (sold from Packard Bioscience, Dreieich, Germany).

[2] = test system: human P-selectin-IgG chimera; experiment: Flow chamber assay, cell adhesion and rolling under flow conditions, P-selectin; type: cell-based; conditions: normalized ratio of %-inhibition of compound divided by %-inhibition of bimosiamose; 125 μM compound; HL-60 cells; flow shear 1 dyne/cm^2
Description: (§4) Flow Chamber Assay/Cell Adhesion and Rolling Under Flow Conditions
(§5) To assess the capability of compounds to inhibit cell binding under dynamic conditions resembling the flow in a blood vessel, flow chamber assays addressing/testing binding of HL-60 cells/various cell lines to P-selectin, L-selectin and E-selectin chimeric molecules are performed.
(§6) Cell attachment under flow conditions is determined using a parallel flow chamber system. A 35 mm polystyrene culture dish is coated for 1 hour at room temperature with coating buffer (50 mM tris-(hydroxymethyl)aminomethane buffer (Tris), 150 mM NaCl, 2 mM CaCl2; pH 7.4) containing human E- or P-selectin-IgG chimera at concentrations of 2.5 μg/ml or 10 μg/ml, respectively. After removal of the coating solution non specific binding sites are blocked for an additional hour with 1% BSA in coating buffer at room temperature. After washing with assay buffer (“Roswell Park Memorial Institute 1640” (RPMI 1640)+10 mM HEPES) the dish is fitted into a parallel plate laminar flow chamber (sold from Glycotech, Rockville, Md.) and mounted on an inverted phase-contrast microscope (sold from Olympus, Hamburg, Germany) equipped with a CCD camera (JVC) that is connected to a PC. Employing a peristaltic pump (sold from Ismatec, Wertheim-Mondfeld, Germany) the re-circulating system is equilibrated with assay buffer containing 125 μM compound or vehicle control (DMSO). Cells (1 million/ml) are added to the chamber and allowed to distribute for 2 minutes at a high flow rate. The flow rate is then decreased resulting in a calculated flow shear of 1 dyne/cm^2. Video sequences of 10 low power fields are digitally recorded after 5 minutes continuous flow. The percentage of inhibition is calculated from the mean number of cells per field that attached to the coated dish surface in the presence versus absence of compound […].

[3] = target: T2, human L-Selectin-IgG-chimera (Homo sapiens, UniProt P14151); experiment: Sialyl Lewis X Tyrosine Sulfate Assay (sLex TSA), L-selectin; type: binding; conditions: sLexTSA; for L-Selectin [% inhib.]: in vitro inhibition at 100 μM
T2 construct: fused on or other part: human IgG Fc part, captured on the plate by goat anti human Fc antibody; a tag, no second protein
T2 sequence (P14151 39-318 limits assumed): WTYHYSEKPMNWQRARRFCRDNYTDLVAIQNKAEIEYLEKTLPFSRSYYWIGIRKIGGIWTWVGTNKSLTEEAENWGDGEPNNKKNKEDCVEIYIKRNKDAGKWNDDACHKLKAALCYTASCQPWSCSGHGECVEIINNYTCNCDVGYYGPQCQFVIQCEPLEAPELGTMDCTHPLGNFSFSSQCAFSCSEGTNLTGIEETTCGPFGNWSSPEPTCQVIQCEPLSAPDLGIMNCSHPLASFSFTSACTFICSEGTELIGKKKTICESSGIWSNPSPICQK
Description: as §1, §2, §3

[4] = target: T3, human E-Selectin-IgG-chimera (Homo sapiens, UniProt P16581); experiment: Sialyl Lewis X Tyrosine Sulfate Assay (sLex TSA), E-selectin; type: binding; conditions: sLexTSA; for E-Selectin [% inhib.]: in vitro inhibition at 100 μM
T3 construct: fused on or other part: human IgG Fc part, captured on the plate by goat anti human Fc antibody; a tag, no second protein
T3 sequence (P16581 22-175 limits assumed): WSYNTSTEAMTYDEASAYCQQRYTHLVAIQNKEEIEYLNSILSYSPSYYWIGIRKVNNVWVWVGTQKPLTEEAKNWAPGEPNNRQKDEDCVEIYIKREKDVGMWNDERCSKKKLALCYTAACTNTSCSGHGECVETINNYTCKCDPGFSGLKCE
Description: as §1, §2, §3

[5] = test system: human E-selectin-IgG chimera; experiment: Flow chamber assay, cell adhesion and rolling under flow conditions, E-selectin; type: cell-based; conditions: normalized ratio of %-inhibition of compound divided by %-inhibition of bimosiamose; 125 μM compound; HL-60 cells; flow shear 1 dyne/cm^2
Description: as §4, §5, §6

Row | Structure (SMILES) | IC50 [1] | IC50 [3] | IC50 [4] | P-Selectin [% inhib.] [1] | L-Selectin [% inhib.] [3] | E-Selectin [% inhib.] [4] | P-Selectin [Ratio] [2] | E-Selectin [Ratio] [5]
1 | COc1ccc(CC(=O)Nc2ccc(-c3cc(C(=O)O)c(C)o3)cc2)c(OC)c1 [Compound 28, 5-{4-[2-(2,4-Dimethoxy-phenyl)-acetylamino]-phenyl}-2-methyl-furan-3-carboxylic acid] | 238 µM | 319 µM | 201 µM | – | – | – | n.s. | 0.99 Ratio
2 | COc1cc(CC(=O)Nc2ccc(-c3cc(C(=O)O)c(C)o3)cc2)cc(OC)c1 [Compound 30, 5-{4-[2-(3,5-Dimethoxy-phenyl)-acetylamino]-phenyl}-2-methyl-furan-3-carboxylic acid] | 133 µM | 376 µM | > 500 µM | – | – | – | n.s. | 1.03 Ratio
3 | COC(=O)c1ccc(C)c(NC(=O)CCCNC(=O)c2cc(O)cc(O)c2)c1 [Compound 37] | – | – | – | 5.2 % inhib. | 9.5 % inhib. | 38.9 % inhib. | – | –
4 | Cc1c(NC(=O)CCCNC(=O)c2cc(O)cc(O)c2)cccc1C(=O)O [Compound 38] | – | – | – | 9.4 % inhib. | 19.3 % inhib. | 40.9 % inhib. | – | –
5 | O=C(CCCNC(=O)c1cc(O)cc(O)c1)NCc1ccc(C(=O)O)cc1 [Compound 39] | – | – | – | 2.9 % inhib. | 10.9 % inhib. | 24.8 % inhib. | – | –

Continued, in another order:

Row | IC50 [1] | IC50 [3] | IC50 [4] | P-Selectin [% inhib.] [1] | L-Selectin [% inhib.] [3] | E-Selectin [% inhib.] [4] | Structure (SMILES) | P-Selectin [Ratio] [2] | E-Selectin [Ratio] [5]
6 | – | – | – | 28.2 % inhib. | 31.1 % inhib. | 34.4 % inhib. | COC(=O)c1ccc(CNC(=O)CCCNC(=O)c2cc(O)cc(O)c2)cc1 [Compound 40] | – | –
7 | 234 µM | 278 µM | 480 µM | – | – | – | Cc1oc(-c2ccc(NC(=O)c3cncc(-c4ccc(O)cc4O)c3)cc2)cc1C(=O)O [Compound 76, 5-(4-{[5-(2,4-Dihydroxy-phenyl)-pyridine-3-carbonyl]-amino}-phenyl)-2-methyl-furan-3-carboxylic acid] | 1.26 Ratio | 0.61 Ratio
